The record followed here is patent publication US10570401B2, “Compositions and method for destabilizing, altering, and dispersing biofilms” (priority 2013, dated 2020).

The subject of series [1] is bacterial biofilm communities. Description: L-arginine versus D-arginine on bacterial biofilm communities. Format: cell-based. As to conditions: FIG. 11. From the text:
Therefore the destabilizing effects of arginine are specific to the L-form.

In the next series the test system is S. gordonii biofilms. In words: S. gordonii biofilm formation in saliva, Bioflux microfluidics system. Format: cell-based. The protocol:
(§1) The effects of arginine-dependent dosing of S. gordonii biofilms is assessed in a modified Bioflux microfluidics system. Human saliva is collected and pooled from ≥6 different volunteers (Cuadra-Saenz et al., Microbiology. 2012; 158(Pt 7):1783-95), diluted to 25%, and additional supplements (e.g. sucrose, haemin, BHI) added as required to simulate different conditions. Note, we grow robust biofilms in even non-supplemented saliva and pooling the saliva minimizes variation in salivary components. To obtain an indication of free arginine levels in pooled saliva, arginine is measured in ≥3 different pooled saliva samples using standard techniques (Jakubovics et al., supra; Van Wuyckhuyse et al., Journal of dental research. 1995; 74(2):686-90). The 24 channels of the Bioflux system are coated with saliva, inoculated with monocultures of S. gordonii (or multi-species biofilms harvested form saliva) and biofilms are developed at 37° C. with cell free saliva. After 20 h, cells are stained with live/dead stain and visualized using a Leica SPE CLSM. Biomass and structural biofilm parameters are quantified using COMSTAT (Heydorn et al., Microbiology. 2000; 146 (Pt 10):2395-407), ImageJ (Collins, Biotechniques. 2007; 43(1 Suppl):25-30), and IMARIS software (Bitplane, Switzerland).

Series [2] has as its system pre-formed multi-species oral biofilms.
Series [3] deals with AI-2 production by multi-species biofilms. In words: AI-2 bioluminescence assay with Vibrio harveyi BB170 on microfluidics efflux of multi-species biofilms. As to conditions: fold induction of bioluminescence, increasing arginine concentrations (FIG. 10). Format: cell-based. An excerpt:
The AI-2 data are normalized to the “control” (non-supplemented saliva).
Values were produced by first taking averages of 4 trials at each concentration and dividing them by the average for the negative control, creating an induction number. […] High AI-2 may also have a destabilizing effect on the community, which could explain or contribute to the structural changes seen in the biofilms.

The next series has as its system saliva derived community. Description: Community composition of saliva-derived biofilms by 454 pyrosequencing. Format: cell-based. Here is the method: Black-colored bars represent data derived from the analysis of biofilms developed in flowing non-supplemented saliva while the grey-colored bars represent data derived from the analysis of biofilms developed in 500 mM supplemented saliva. (B) Showing changes in phyla (color coding as before). (C) Showing changes in composition of genera (key is from left to right in order from bottom to top in bar; Neisseria, Granulicatella, Streptococcus, etc).
(§2) This example describes the impact of L-arginine on oral biofilms that contain species grown under conditions representative of the human oral cavity. […] Destabilization was expressed as loss of biofilm structure and change in bacterial community membership, as determined by confocal laser scanning microscopy and 454 pyrosequencing.

The subject of series [4] is multi-species oral biofilm communities. Description: Multi-species oral biofilms in static (non-flowing) microplate system, CLSM. The format is cell-based. As to conditions: 500 mM, static microplate system (FIG. 6). An excerpt:
Upper renderings (A1-H1) are of the x-y plane. Middle renderings (A2-H2) are of the x-z plane. Lower renderings (A3-H3) represent an angled view (x-y-z). Bars represent 50 μm.

Series [5] relates to multi-species oral biofilms. Description: Multi-species oral biofilms developed 20 h in flowing saliva (Bioflux microfluidic system), CLSM live/dead. The format is cell-based. The protocol: as §1, §2
Green signal indicates viable live cells and red signal indicates damaged/dead cells. […] Data derived from at-least 18 renderings across three experiments and standard deviations are shown in brackets. *P<0.05; **P<0.01; […]: significant differences from the CFS control.

A further series deals with S. gordonii DL1. Description: Fluorescent reporter plasmid (pPE1010) expression in S. gordonii DL1 biofilms on exogenous AI-2. Format: cell-based. As to conditions: exogenously added AI-2 (FIG. 12B). From the text:
A plasmid (See e.g., FIG. 12) was utilized to monitor expression of reporter genes in the presence of arginine or AI-2. The pPE1010 backbone described in England et al. (Proc Natl Acad Sci USA. 2004 Nov. 30; 101(48):16917-22. Epub 2004 Nov. 16) was modified to express fluorescent genes such as GFP or Mcherry in S. gordonii DL1 or other species of streptococci. Specifically, promoters from differentially regulated genes are inserted upstream of a GFP or Mcherry gene harbored on pPE1010 (or similar streptococcal plasmid shuttle vector system) to be differentially expressed (FIGS. 12A and 12B). […] The plasmid provides constitutive-producing fluorescent probes for monitoring bacteria in biofilms and reporter systems that report arginine (or AI-2) concentrations in biofilms such as those found in dental plaque biofilms.

As to `N=C(N)NCCC[C@@H](N)C(=O)O` [D-arginine, reference compound], the “disruption of bacterial biofilm communities” value in series [1] is recorded as “does not have the same effect”.

In the case of `N=C(N)NCCC[C@H](N)C(=O)O` [L-arginine], the “disruption of bacterial biofilm communities” value in series [1] is given as “disrupts bacterial biofilm communities”. The “extent of biofilm present” value in the series with S. gordonii biofilms (500 mM arginine, saliva, 20 h (FIG. 3)) is on record as “significantly reduce the extent of biofilm present”. The “biofilm formation by S. gordonii” value in the series with S. gordonii biofilms (high (millimolar) concentrations of arginine, dose-dependent) is on record as “abrogate biofilm formation by S. gordonii”. Besides, in series [2] (500 mM (FIG. 8)), the “destabilization of pre-formed biofilms” value is recorded as “destabilizes pre-formed multi-species oral biofilms of differing developmental age”. Also, the “penetration of CPC into biofilm” value in series [2] (500 mM L-arginine, CPC 0.01 or 0.05% (FIG. 9)) is listed as “enhance the penetration of CPC”. For the same molecule, the “amount of AI-2 produced from multi-species biofilms” value in series [3] is on record as “increases as the concentrations of arginine used to treat them increases”. For the same molecule, the “proportion of Veillonella species and non-cariogenic streptococci in biofilms” value with saliva derived community (500 mM treated biofilms) was “increased”. For the same molecule, the “bacterial diversity (operational taxonomic units, OTU)” value in the series with saliva derived community (prolonged exposure to 500 mM (FIG. 5A)) is recorded as “increase in bacterial diversity”. In series [4], the biofilm architecture entry is reported as “makes the biofilm more diffuse with respect to architecture”, the biofilm biomass result was “reduce biofilm biomass” and the killing result was “No substantial killing was observed”.

Turning to `Cl.N=C(N)NCCC[C@H](N)C(=O)O` [LAHCL, L-arginine monohydrochloride], in series [5] (HCl balanced L-arginine in human saliva), the “changes in pH” value is recorded as “No substantial changes in pH”. Moreover, the “destabilization of oral biofilms (loss of biofilm structure, change in community membership)” value in series [5] (human saliva inoculum, 25% filter-sterilized saliva) was “destabilizes oral biofilms in a concentration dependent manner”. Moreover, the antimicrobial effects entry in series [5] (only detected as a consequence of biofilm perturbation) is “Very limited antimicrobial effects”.

On to autoinducer-2 [AI-2], for which, in the series on S. gordonii DL1, the “reporter expression from 50S ribosomal protein (SGO_1192) promoter” value was “minimal differential expression” and the “reporter expression from catabolite control protein A (SGO_0773; ccpA) promoter” value is on record as “drastically different gene expression”.
